In paper PMC9892044, “Synthesis of new diphenyl urea-clubbed imine analogs and its Implications in diabetic management through in vitro and in silico approaches” (Scientific Reports, 2023):

Row | melting point [°C] | Compound
1 | 218 to 220 | CCOc1cccc(/C=N/c2ccccc2NC(=O)Nc2cccc(Cl)c2)c1O [Compound 3a, (E)-1-(3-chlorophenyl)-3-(2-((3-ethoxy-2-hydroxybenzylidene)amino)phenyl) urea]
2 | 217 to 219 | CCOc1cccc(/C=N/c2ccccc2NC(=O)Nc2ccc(F)cc2)c1O [Compound 3b, (E)-1-(2-((3-ethoxy-2-hydroxybenzylidene)amino)phenyl)-3-(4-fluorophenyl) urea]
3 | 228 to 230 | CCOc1cccc(/C=N/c2ccccc2NC(=O)Nc2ccc3ccccc3c2)c1O [Compound 3d, (E)-1-(2-((3-ethoxy-2-hydroxybenzylidene)amino)phenyl)-3-(naphthalen-2-yl) urea]
4 | 204 to 206 | CCOc1cccc(/C=N/c2ccccc2NC(=O)Nc2ccc(OC)cc2)c1O [Compound 3e, (E)-1-(2-((3-ethoxy-2-hydroxybenzylidene)amino)phenyl)-3-(4-methoxyphenyl) urea]
5 | 218 to 220 | CCOc1cccc(/C=N/c2ccccc2NC(=O)Nc2ccc(Cl)cc2)c1O [Compound 3f, (E)-1-(4-chlorophenyl)-3-(2-((3-ethoxy-2-hydroxybenzylidene)amino)phenyl) urea]
6 | 216 to 218 | CCOc1cccc(/C=N/c2ccccc2NC(=O)Nc2ccccc2C)c1O [Compound 3g, (E)-1-(2-((3-ethoxy-2-hydroxybenzylidene)amino)phenyl)-3-(o-tolyl) urea]
7 | 203 to 205 | CCOc1cccc(/C=N/c2ccccc2NC(=O)Nc2cccc(C)c2)c1O [Compound 3h, (E)-1-(2-((3-ethoxy-2-hydroxybenzylidene)amino)phenyl)-3-(m-tolyl) urea]
8 | 210 to 212 | CCOc1cccc(/C=N/c2ccccc2NC(=O)Nc2ccc(C)cc2)c1O [Compound 3i, (E)-1-(2-((3-ethoxy-2-hydroxybenzylidene)amino)phenyl)-3-(p-tolyl)urea]
9 | 208 to 210 | COc1cccc(/C=N/c2ccccc2NC(=O)Nc2cccc(Cl)c2)c1O [Compound 3l, (E)-1-(3-chlorophenyl)-3-(2-((2-hydroxy-3-methoxybenzylidene)amino)phenyl) urea]
10 | 200 to 201 | COc1cccc(/C=N/c2ccccc2NC(=O)Nc2cccc(F)c2)c1O [Compound 3n, (E)-1-(3-fluorophenyl)-3-(2-((2-hydroxy-3-methoxybenzylidene)amino)phenyl) urea]
11 | 214 to 216 | COc1cccc(/C=N/c2ccccc2NC(=O)Nc2ccc3ccccc3c2)c1O [Compound 3o, (E)-1-(2-((2-hydroxy-3-methoxybenzylidene)amino)phenyl)-3-(naphthalen-2-yl) urea]
12 | 218 to 220 | COc1cccc(/C=N/c2ccccc2NC(=O)Nc2ccc(Cl)cc2)c1O [Compound 3q, (E)-1-(4-chlorophenyl)-3-(2-((2-hydroxy-3-methoxybenzylidene)amino)phenyl) urea]
13 | 201 to 203 | COc1cccc(/C=N/c2ccccc2NC(=O)Nc2cccc(C)c2)c1O [Compound 3s, (E)-1-(2-((2-hydroxy-3-methoxybenzylidene)amino)phenyl)-3-(m-tolyl) urea]
14 | 188 to 190 | COc1cccc(/C=N/c2ccccc2NC(=O)Nc2ccccc2)c1O [Compound 3u, (E)-1-(2-((2-hydroxy-3-methoxybenzylidene)amino)phenyl)-3-phenylurea]
15 | 200 to 212 | COc1cccc(/C=N/c2ccccc2NC(=O)Nc2ccc(C(C)=O)cc2)c1O [Compound 3v, (E)-1-(4-acetylphenyl)-3-(2-((2-hydroxy-3-methoxybenzylidene)amino)phenyl) urea]
16 | 219 to 221 | COc1cc(/C=N/c2ccccc2NC(=O)Nc2ccc(Cl)cc2)ccc1O [Compound 3w, (E)-1-(4-chlorophenyl)-3-(2-((4-hydroxy-3-methoxybenzylidene)amino)phenyl) urea]
17 | 200 to 202 | COc1cc(/C=N/c2ccccc2NC(=O)Nc2ccccc2C)ccc1O [Compound 3x, (E)-1-(2-((4-hydroxy-3-methoxybenzylidene)amino)phenyl)-3-(o-tolyl) urea]
